Test results reported in PubChem BioAssay (NCI).
Values joined by “and” are separate entries in the source; they are usually repeats but may differ in a detail not shown here. Identical values can stand only once.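 Method: 48-hour compound exposure of cells in 96-well plates, five concentrations, linear interpolation of endpoints. GI50: concentration for 50% inhibition of growth. The concentration for full growth arrest is given as TGI.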

Tests used:
Experiment in all cases: growth of human tumour cells (NCI), 48 h
EKVX NSCLC = test system: EKVX NSCLC
HCT-15 colon = test system: HCT-15 colon
HS 578T breast = test system: HS 578T breast
MCF7 breast = test system: MCF7 breast
OVCAR-8 ovarian = test system: OVCAR-8 ovarian
RPMI-8226 leukemia = test system: RPMI-8226 leukemia
SF-295 CNS = test system: SF-295 CNS
SK-MEL-5 melanoma = test system: SK-MEL-5 melanoma
UACC-62 melanoma = test system: UACC-62 melanoma
CAKI-1 renal = test system: CAKI-1 renal

SMILES | GI50 (EKVX NSCLC) | TGI (EKVX NSCLC) | GI50 (HCT-15 colon) | TGI (HCT-15 colon) | GI50 (HS 578T breast) | TGI (HS 578T breast) | GI50 (MCF7 breast) | TGI (MCF7 breast) | GI50 (OVCAR-8 ovarian) | TGI (OVCAR-8 ovarian) | GI50 (RPMI-8226 leukemia) | TGI (RPMI-8226 leukemia) | GI50 (SF-295 CNS) | TGI (SF-295 CNS) | GI50 (SK-MEL-5 melanoma) | TGI (SK-MEL-5 melanoma) | GI50 (UACC-62 melanoma) | TGI (UACC-62 melanoma) | GI50 (CAKI-1 renal) | TGI (CAKI-1 renal)
Cc1cc2c(-c3nc4ccccn4c3NC34CC5CC(CC(C5)C3)C4)c(O)c(O)cc2c(O)c1-c1c(C)cc2c(-c3nc4ccccn4c3NC34CC5CC(CC(C5)C3)C4)c(O)c(O)cc2c1O | 0.454 µM | > 25 µM | 0.466 µM | > 25 µM | 0.85 µM | 16.2 µM | 0.175 µM | 4.28 µM | 0.871 µM | > 25 µM | 0.355 µM | > 25 µM | 0.262 µM | 2.78 µM | 0.564 µM | 1.51 µM | 0.521 µM | 1.91 µM |  | 
NCCn1c2c(c3ccccc3c1=O)C(=O)c1ccccc1-2 | 1.48 µM | 4.48 µM | 0.271 µM | 2.32 µM | 1.58 µM | 6.66 µM | 0.292 µM | 12.6 µM | 0.0915 µM | 1.57 µM | 0.338 µM | 1.5 µM | 0.315 µM | 1.48 µM | 0.386 µM | 1.9 µM | 0.833 µM | 5.69 µM | 0.129 µM | 0.887 µM
COc1cc(/C=C2/C(=O)N(C(=O)c3ccccc3O)N=C2C)ccc1O |  | > 77.7 µM |  | > 100 µM |  | > 100 µM |  | > 100 µM |  | > 100 µM |  | > 100 µM |  | > 100 µM |  | > 42.1 µM |  | 0.364 µM |  | > 25.5 µM
CCCC(=O)Nc1cn(COC)c(C(=O)N2C[C@H]3C[C@@]34C2=CC(=O)c2[nH]cc(C)c24)n1 | 39.1 µM | 39 µM and > 100 µM |  | 50 µM and 72.2 µM | 20.9 µM | 43.1 µM and > 100 µM | 3.53 µM | 50 µM and > 100 µM |  | 14.6 µM and 20.1 µM | 3.21 µM | 22.8 µM and > 100 µM | 5 µM | 50 µM and 67.2 µM | 2.53 µM | 16 µM and 9.93 µM |  | 14.5 µM and 26.1 µM | 5.42 µM | 17.3 µM and > 100 µM
N#Cc1c(-c2ccc(Cl)cc2)csc1NC(=O)Nc1cccc(C(F)(F)F)c1 | 1.97 µM | 9.75 µM | 2.38 µM | 10.2 µM | 3.25 µM | 23.9 µM | 3.04 µM | 9.97 µM |  |  | 1.84 µM | 7 µM | 1.74 µM | 4.21 µM | 1.74 µM | 3.18 µM | 2.92 µM | 12 µM | 2.7 µM | 10.5 µM
CNc1ccc(N=Nc2cccc3ncccc23)cc1 | 3.62 µM | > 100 µM | 16.1 µM | > 100 µM | 24.7 µM | > 100 µM | 0.0261 µM | > 100 µM | 98.1 µM | > 100 µM | 7.43 µM | > 65.6 µM | 17.8 µM | > 100 µM | 23 µM | > 100 µM | 13.1 µM | > 100 µM | 6 µM | > 100 µM
COc1ccc(-c2cn(-c3cc(OC)c(OC)c(OC)c3)c(=O)n2-c2ccccc2)cc1 | > 100 µM | > 100 µM | 52.6 µM | > 100 µM | 53.2 µM | > 100 µM | 86 µM | > 100 µM | > 100 µM | > 100 µM | > 100 µM | > 100 µM | > 100 µM | > 100 µM | 21.5 µM | > 100 µM | 53 µM | > 100 µM | > 100 µM | > 100 µM
O=C1Nc2ccc(Br)cc2C1=Nc1ccc(Cl)cc1 |  | 47.1 µM |  | 36.8 µM |  | > 100 µM |  | 27.1 µM |  | 26.7 µM |  | 26.5 µM |  | 89.2 µM |  | 20.1 µM |  | 12.6 µM |  | > 100 µM
CCCCCCCCCCCCCCCCCCNC(=O)[C@H]1CSC(c2ccc(F)c(OC)c2)N1 (stereo partly specified) | 0.813 µM | 1.6 µM |  |  | 1.24 µM | 2.97 µM | 0.141 µM | 0.541 µM | 0.976 µM | 2.7 µM | 0.195 µM | 0.826 µM | 2.14 µM | 13.7 µM | 0.812 µM | 1.52 µM | 0.639 µM | 1.28 µM | 0.846 µM | 1.58 µM
O=C(O)C(O)c1ccc(F)cc1 (stereo unspecified) |  | > 100 µM |  | > 100 µM |  | > 100 µM |  | > 100 µM |  | > 100 µM |  | > 100 µM |  | > 100 µM |  |  |  | > 100 µM |  | > 100 µM
Cc1ccc(S(=O)c2ccc([N+](=O)[O-])c3nonc23)cc1 (stereo unspecified) |  |  |  |  | 21.1 µM | 60.2 µM | 5.53 µM | 21.9 µM | 6.89 µM | 22.4 µM | 3.62 µM | 25.5 µM |  |  | 14.8 µM | 28.5 µM | 7.25 µM | 20.2 µM | 3.12 µM | 11.3 µM
C/C(=N\O)[C@H]1CC[C@@]2(C)[C@@H]3CC[C@H]4C(C)(C)/C(=N/O)CC[C@@]45CC35CC[C@]12C (stereo partly specified) | 5.66 µM | > 16.7 µM | 3.75 µM | 10.5 µM | 2.23 µM | 7.54 µM | 5.82 µM | > 16.7 µM | 3.64 µM | 9.39 µM | 0.696 µM | 6.17 µM |  |  | 1.51 µM | 7.59 µM | 5.44 µM | > 16.7 µM |  | 
Cc1cc(C(=O)Nc2cc(Nc3ncccc3-c3ncnc4nc[nH]c34)ccc2F)cc(C(C)(C)C#N)c1 | 4.03 µM | > 100 µM | 2.97 µM | > 100 µM | 1.92 µM | > 100 µM | 5.07 µM | > 100 µM | 3.02 µM | > 100 µM | 2.01 µM | 53.5 µM | 4.45 µM | > 100 µM | 1.38 µM | 13.7 µM |  |  | 0.951 µM | > 100 µM
COc1cccc(C2CC(=O)Nc3cc4c(cc32)CCC4)c1OC (stereo unspecified) |  |  | 3.63 µM | 25.8 µM | 3.04 µM | 34.8 µM | 3.22 µM | 18.4 µM | 3.67 µM | 31.9 µM | 2.63 µM | 14.6 µM | 2.83 µM | 12.4 µM | 2.9 µM | 11.1 µM | 2.9 µM | 14.4 µM | 3.36 µM | 56.2 µM
